# Measurements published in patent US20090197880A1 (Genelabs Technologies, Inc., priority 2007, published 2009).
# Experiment: HCV replicon assay (luciferase) in ET (Huh-lucubineo-ET) cell line
# Assay type: cell-based
# Details: Hepatitis C virus; tested at 5 μM; inhibition of replication relative to no compound control; ET replicon cells, luciferase 48-72 hours
# From the text: A cell line, ET (Huh-lucubineo-ET) was used for screening of compounds, or pharmaceutically acceptable salts or solvates, described herein for inhibition of HCV RNA dependent RNA polymerase. The ET cell line was stably transfected with RNA transcripts harboring a I389luc-ubi-neo/NS3-3′/ET; replicon with firefly luciferase-ubiquitin-neomycin phosphotransferase fusion protein and EMCV-IRES driven NS3-5B polyprotein containing the cell culture adaptive mutations (E1202G; T1280I; K1846T) (Krieger at al, 2001 and unpublished). The ET cells were grown in DMEM, supplemented with 10% fetal calf serum, 2 mM Glutamine, Penicillin (100 IU/mL)/Streptomycin (100 μg/mL), 1× nonessential amino acids, and 250 μg/mL G418 (“Geneticin”). They were all available through Life Technologies (Bethesda, Md.). The cells were plated at 0.5−1.0×10^4 cells/well in the 96 well plates and incubated for 24 hrs before adding the test compounds. […] Luciferase activity was measured 48-72 hours later by adding a lysis buffer and the substrate (Catalog number Glo-lysis buffer E2661 and Bright-Glo luciferase system E2620 Promega, Madison, Wis.). Cells should not be too confluent during the assay. Percent inhibition of replication was plotted relative to no compound control. Under the same condition, cytotoxicity of the compounds was determined using cell proliferation reagent, WST-1 (Roche, Germany). The compounds showing antiviral activities, but no significant cytotoxicities were chosen to determine the EC50 and TC50, the effective concentration and toxic concentration at which 50% of the maximum inhibition is observed. For these determinations, 6 dilutions of each compound were used. Compounds were typically diluted 3 fold to span a concentration range of 250 fold. EC50 and similarly TC50 values were calculated by fitting % inhibition at each concentration to the following equation:
# % inhibition=100%/[(EC50/[I])^b+1]
# where b is Hill's coefficient.
row,SMILES,inhibition at 5 µM
1,"CCCOc1ccc(-c2cc(Cn3cc4nc(-c5cccc(F)c5F)nc-4cn3)on2)cc1 [Compound 105, 2-(2,3-Difluoro-phenyl)-5-[3-(4-propoxy-phenyl)-isoxazol-5-ylmethyl]-5H-imidazo[4,5-d]pyridazine]",99.9%
2,"Fc1ccccc1-c1nc2cnn(Cc3cc(-c4ccccc4)no3)cc-2n1 [Compound 111, 2-(2-Fluoro-phenyl)-5-(3-phenyl-isoxazol-5-ylmethyl)-5H-imidazo[4,5-d]pyridazine]",16%
3,"Fc1ccc(-c2cc(Cn3cc4nc(-c5ccccc5F)nc-4cn3)on2)c(C(F)(F)F)c1 [Compound 115, 2-(2-Fluoro-phenyl)-5-[3-(4-fluoro-2-trifluoromethyl-phenyl)-isoxazol-5-ylmethyl]-5H-imidazo[4,5-d]pyridazine]",67.6%
4,"Fc1ccc(-c2cc(Cn3cc4nc(-c5cccc(F)c5F)nc-4cn3)on2)c(C(F)(F)F)c1 [Compound 101, 2-(2,3-Difluoro-phenyl)-5-[3-(4-fluoro-2-trifluoromethyl-phenyl)-isoxazol-5-ylmethyl]-5H-imidazo[4,5-d]pyridazine]",80.3%
5,"COc1ccc(-c2cc(Cn3cc4nc(-c5ccccc5F)nc-4cn3)on2)cc1 [Compound 109, 2-(2-Fluoro-phenyl)-5-[3-(4-methoxy-phenyl)-isoxazol-5-ylmethyl]-5H-imidazo[4,5-d]pyridazine]",98%

# Same assay, conditions: Hepatitis C virus; tested at 10 μM; inhibition of replication relative to no compound control; ET replicon cells, luciferase 48-72 hours; read-out: % inhition at 10 μM
row,SMILES,inhibition at 10 µM
1,COCCOc1ccc(-c2cc(Cn3cc4nc(-c5cccc(F)c5F)nc-4cn3)on2)cc1 [Compound 195],98.8%
2,"CCCOc1ccc(-c2cc(Cn3cc4nc(-c5cccc(F)c5F)nc-4cn3)on2)cc1 [Compound 105, 2-(2,3-Difluoro-phenyl)-5-[3-(4-propoxy-phenyl)-isoxazol-5-ylmethyl]-5H-imidazo[4,5-d]pyridazine]",99.7%
3,"Cc1ccc(-c2cc(Cn3cc4nc(-c5cccc(F)c5F)nc-4cn3)on2)c(C(F)(F)F)c1 [Compound 304, 2-(2,3-Difluoro-phenyl)-5-[3-(4-methyl-2-trifluoromethyl-phenyl)-isoxazol-5-ylmethyl]-5H-imidazo[4,5-d]pyridazine]",99.7%
4,"CC(C)Cc1ccc(-c2cc(Cn3cc4nc(-c5cccc(F)c5F)nc-4cn3)on2)c(C(F)(F)F)c1 [Compound 323, 2-(2,3-Difluoro-phenyl)-5-[3-(4-isobutyl-2-trifluoromethyl-phenyl)-isoxazol-5-ylmethyl]-5H-imidazo[4,5-d]pyridazine]",100%
5,"Fc1ccc(-c2cc(Cn3cc4nc(-c5ccccc5F)nc-4cn3)on2)c(C(F)(F)F)c1 [Compound 115, 2-(2-Fluoro-phenyl)-5-[3-(4-fluoro-2-trifluoromethyl-phenyl)-isoxazol-5-ylmethyl]-5H-imidazo[4,5-d]pyridazine]",75.3%
6,"Fc1cccc(-c2nc3cnn(Cc4cc(-c5ccc(Br)cc5C(F)(F)F)no4)cc-3n2)c1F [Compound 293, 5-[3-(4-Bromo-2-trifluoromethyl-phenyl)-isoxazol-5-ylmethyl]-2-(2,3-difluoro-phenyl)-5H-imidazo[4,5-d]pyridazine]",99.7%
7,"FC(F)(F)c1ccc(-c2cc(Cn3cc4nc(NC5CCCc6ccccc65)nc-4cn3)on2)c(C(F)(F)F)c1 (stereo not shown) [Compound 260, {5-[3-(2,4-Bis-trifluoromethyl-phenyl)-isoxazol-5-ylmethyl]-5H-imidazo[4,5-d]pyridazin-2-yl}-(1,2,3,4-tetrahydro-naphthalen-1-yl)-amine]",53.2%
8,"Fc1cccc(-c2nc3cnn(Cc4cc(-c5ccc(C(F)(F)F)nc5)no4)cc-3n2)c1F [Compound 205, 2-(2,3-Difluoro-phenyl)-5-[3-(6-trifluoromethyl-pyridin-3-yl)-isoxazol-5-ylmethyl]-5H-imidazo[4,5-d]pyridazine]",98.7%
9,"COc1ccc(-c2cc(Cn3cc4nc(-c5cccc(F)c5F)nc-4cn3)on2)cc1 [Compound 221, 2-(2,3-Difluoro-phenyl)-5-[3-(4-methoxy-phenyl)-isoxazol-5-ylmethyl]-5H-imidazo[4,5-d]pyridazine]",98.9%
10,"O=C(COc1ccc(-c2cc(Cn3cc4nc(-c5cccc(F)c5F)nc-4cn3)on2)c(C(F)(F)F)c1)N1CCCCC1 [Compound 325, 2-(4-{5-[2-(2,3-Difluoro-phenyl)-imidazo[4,5-d]pyridazin-5-ylmethyl]-isoxazol-3-yl}-3-trifluoromethyl-phenoxy)-1-piperidin-1-yl-ethanone]",8.2%
11,"COc1ccc(-c2cc(Cn3cc4nc(-c5cccc(F)c5F)nc-4cn3)on2)c(OC)c1 [Compound 294, 2-(2,3-Difluoro-phenyl)-5-[3-(2,4-dimethoxy-phenyl)-isoxazol-5-ylmethyl]-5H-imidazo[4,5-d]pyridazine]",50%
12,"CC(=O)c1ccc(F)c(-c2nc3cnn(Cc4cc(-c5ccc(C(F)(F)F)cc5C(F)(F)F)no4)cc-3n2)c1 [Compound 137, 1-(3-{5-[3-(2,4-Bis-trifluoromethyl-phenyl)-isoxazol-5-ylmethyl]-5H-imidazo[4,5-d]pyridazin-2-yl}-4-fluoro-phenyl)-ethanone]",40.4%
13,"Fc1ccc(-c2cc(Cn3cc4nc(-c5cccc(F)c5F)nc-4cn3)on2)c(C(F)(F)F)c1 [Compound 101, 2-(2,3-Difluoro-phenyl)-5-[3-(4-fluoro-2-trifluoromethyl-phenyl)-isoxazol-5-ylmethyl]-5H-imidazo[4,5-d]pyridazine]",92.9%
14,"O=C(COc1ccc(-c2cc(Cn3cc4nc(-c5cccc(F)c5F)nc-4cn3)on2)cc1)NC1CC1 [Compound 271, N-Cyclopropyl-2-(4-{5-[2-(2,3-difluoro-phenyl)-imidazo[4,5-d]pyridazin-5-ylmethyl]-isoxazol-3-yl}-phenoxy)-acetamide]",2.27%
15,"COc1ccc(-c2cc(Cn3cc4nc(-c5ccccc5F)nc-4cn3)on2)cc1 [Compound 109, 2-(2-Fluoro-phenyl)-5-[3-(4-methoxy-phenyl)-isoxazol-5-ylmethyl]-5H-imidazo[4,5-d]pyridazine]",95.4%
16,"C#Cc1ccc(-c2cc(Cn3cc4nc(-c5cccc(F)c5F)nc-4cn3)on2)cc1 [Compound 334, 2-(2,3-Difluoro-phenyl)-5-[3-(4-ethynyl-phenyl)-isoxazol-5-ylmethyl]-5H-imidazo[4,5-d]pyridazine]",99%
17,"CCCCCc1ccc(-c2cc(Cn3cc4nc(-c5cccc(F)c5F)nc-4cn3)on2)cc1 [Compound 191, 2-(2,3-Difluoro-phenyl)-5-[3-(4-pentyl-phenyl)-isoxazol-5-ylmethyl]-5H-imidazo[4,5-d]pyridazine]",99.8%
18,"Fc1cccc(-c2nc3cnn(Cc4cc(-c5ccc(CN6CCCCC6)cc5)no4)cc-3n2)c1F [Compound 157, 2-(2,3-Difluoro-phenyl)-5-[3-(4-piperidin-1-ylmethyl-phenyl)-isoxazol-5-ylmethyl]-5H-imidazo[4,5-d]pyridazine]",9.99%
19,"Cc1cc(OC(F)(F)F)ccc1-c1cc(Cn2cc3nc(-c4cccc(F)c4F)nc-3cn2)on1 [Compound 177, 2-(2,3-Difluoro-phenyl)-5-[3-(2-methyl-4-trifluoromethoxy-phenyl)-isoxazol-5-ylmethyl]-5H-imidazo[4,5-d]pyridazine]",99.6%
20,"Fc1cccc(-c2nc3cnn(Cc4cc(-c5ccc(OCCN6CCOCC6)cc5)no4)cc-3n2)c1F [Compound 196, 2-(2,3-Difluoro-phenyl)-5-{3-[4-(2-morpholin-4-yl-ethoxy)-phenyl]-isoxazol-5-ylmethyl}-5H-imidazo[4,5-d]pyridazine]",89%
21,"Oc1ccccc1-c1nc2cnn(Cc3cc(-c4ccc(C(F)(F)F)cc4C(F)(F)F)no3)cc-2n1 [Compound 134, 2-{5-[3-(2,4-Bis-trifluoromethyl-phenyl)-isoxazol-5-ylmethyl]-5H-imidazo[4,5-d]pyridazin-2-yl}-phenol]",0.51%
22,"Cc1ccc(-c2cc(Cn3cc4nc(-c5cccc(F)c5F)nc-4cn3)on2)c(C)c1 [Compound 309, 2-(2,3-Difluoro-phenyl)-5-[3-(2,4-dimethyl-phenyl)-isoxazol-5-ylmethyl]-5H-imidazo[4,5-d]pyridazine]",100%
23,"COc1ccc(-c2cc(Cn3cc4nc(-c5cccc(F)c5F)nc-4cn3)on2)c(F)c1 [Compound 313, 2-(2,3-Difluoro-phenyl)-5-[3-(2-fluoro-4-methoxy-phenyl)-isoxazol-5-ylmethyl]-5H-imidazo[4,5-d]pyridazine]",99.2%
